The values that follow come from PubChem BioAssay (NCI).

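Protocol summary: plate cells (96-well), add compound at 5 concentrations, incubate 48 h, interpolate endpoints linearly. Abbreviation: GI50, concentration required for 50% inhibition of growth. At the TGI there is no net growth.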

Some test systems named below: A549 NSCLC; SW-620 colon; TK-10 renal; HOP-92 NSCLC; HCT-15 colon; ACHN renal; SK-OV-3 ovarian; SK-MEL-28 melanoma.
What all share (assay): growth of human tumour cells (NCI), 48 h

For `CCOC(=O)c1cn2ncnc(Oc3ccc(NC(=O)NCCN(CC)CC)c(Cl)c3)c2c1C`, the GI50 in the assay with A549 NSCLC is 15.8 µM; with SW-620 colon, 2.1 µM; with TK-10 renal, 2.91 µM; in the assay with HOP-92 NSCLC it was 1.76 µM; in the assay on HCT-15 colon, 1.84 µM; in the assay with ACHN renal, 2.31 µM. Also, the GI50 was 20.7 µM with SK-OV-3 ovarian and 1.69 µM in the assay on SK-MEL-28 melanoma. Moreover, the TGI in the assay on A549 NSCLC stood at 40.2 µM; with SW-620 colon it was 4.6 µM; in the assay on TK-10 renal, 11.1 µM; in the assay with HOP-92 NSCLC, 6.19 µM; with HCT-15 colon, 4.07 µM; with ACHN renal, 5.54 µM. For the same compound, the TGI with SK-OV-3 ovarian worked out at 50.2 µM; in the assay with SK-MEL-28 melanoma, 3.15 µM.

Consider `O=C1C(Nc2cccc(O)c2)=C(Sc2ccc(Cl)cc2)C(=O)N1Cc1ccccc1`, for which the GI50 is 5.38 µM in the assay with A549 NSCLC; 16.7 µM in the assay on TK-10 renal; 4.73 µM in the assay on HOP-92 NSCLC; 10.2 µM with HCT-15 colon; 9.33 µM in the assay with ACHN renal; 12.6 µM with SK-OV-3 ovarian. The GI50 in the assay with SK-MEL-28 melanoma was 11 µM. Besides, the TGI in the assay with A549 NSCLC came out at 35.9 µM; with TK-10 renal it was 31.8 µM; in the assay with HOP-92 NSCLC, 30.7 µM; with HCT-15 colon, 33.9 µM; with ACHN renal it was 27 µM; in the assay with SK-OV-3 ovarian, 30.6 µM. Moreover, the TGI with SK-MEL-28 melanoma was 40.9 µM.

Take `Cc1cc(S(=O)(=O)Nc2nc3ccsc3c(=O)n2Cc2ccccc2)c(S)cc1Cl`: the GI50 was 34.5 µM with A549 NSCLC; 34.1 µM with SW-620 colon; 29.7 µM with TK-10 renal; 87.6 µM in the assay on HOP-92 NSCLC; 74.5 µM in the assay on HCT-15 colon; 57.5 µM in the assay on ACHN renal. For the same compound, the GI50 with SK-MEL-28 melanoma is 25 µM. Moreover, the TGI in the assay on A549 NSCLC is greater than 100 µM; in the assay with SW-620 colon, greater than 100 µM; in the assay on TK-10 renal, 91.1 µM; with HOP-92 NSCLC, greater than 100 µM; with HCT-15 colon, greater than 100 µM; in the assay on ACHN renal it was greater than 100 µM. In addition, in the assay with SK-MEL-28 melanoma, the TGI is 57.2 µM.

In the case of `Cc1ccc(C(=O)Nc2ccccc2C(=O)N/N=C(\c2ccccc2)c2ccccn2)cc1`, the GI50 was 0.703 µM in the assay on A549 NSCLC; 0.603 µM in the assay on SW-620 colon; 3.58 µM with TK-10 renal; 6.27 µM with HOP-92 NSCLC; 0.06 µM in the assay with HCT-15 colon; 0.166 µM in the assay on ACHN renal. Besides, the GI50 is 0.478 µM with SK-OV-3 ovarian and 0.597 µM in the assay on SK-MEL-28 melanoma. In addition, the TGI in the assay with A549 NSCLC was greater than 100 µM; in the assay on SW-620 colon, greater than 100 µM; with TK-10 renal, greater than 100 µM; in the assay on HOP-92 NSCLC it was greater than 100 µM; with HCT-15 colon it was greater than 100 µM; in the assay on ACHN renal it was greater than 25.9 µM. Moreover, the TGI in the assay on SK-OV-3 ovarian and in the assay on SK-MEL-28 melanoma was greater than 100 µM in each case.

Consider `COc1ccc(Cn2c3c(c4c(O)cccc42)C(=O)c2ccccc2-3)cc1`, for which the GI50 in the assay on A549 NSCLC was 8.52 µM; with SW-620 colon it was 12.6 µM; in the assay with TK-10 renal, 4.36 µM; in the assay with HOP-92 NSCLC, 0.233 µM; in the assay with HCT-15 colon, 16.1 µM; in the assay on ACHN renal, 5.14 µM. Also, the results for the GI50 in the assay with SK-OV-3 ovarian and with SK-MEL-28 melanoma were 14.9 µM and 11.6 µM, respectively. Besides, the TGI came out at 32 µM in the assay with A549 NSCLC; 36.9 µM in the assay with SW-620 colon; 18.3 µM with TK-10 renal; 4.23 µM in the assay on HOP-92 NSCLC; 89.8 µM in the assay with HCT-15 colon; 16.6 µM in the assay with ACHN renal. Also, the TGI stood at 28.1 µM with SK-OV-3 ovarian and 25 µM in the assay on SK-MEL-28 melanoma.

On to `CC(C)[C@H](O)C(=O)N[C@H]1Cc2ccc3c(c2)[C@]24C5=C(N=C(O5)[C@H](C(C)C)NC1=O)c1nc(Cl)c(o1)-c1c(Cl)[nH]c5cccc(c15)-c1cccc2c1N[C@H]4O3`, for which the GI50 in the assay with A549 NSCLC is less than 0.001 µM; with SW-620 colon it was 0.0017 µM. In addition, the TGI in the assay with A549 NSCLC was greater than 10 µM; in the assay on SW-620 colon, greater than 10 µM; in the assay with HCT-15 colon, greater than 10 µM; in the assay on ACHN renal, 5.3 µM; in the assay on SK-OV-3 ovarian, greater than 10 µM.

Regarding `C=C(C)C(=O)N1c2ccc(OC)cc2CC1C(=O)OCC` (stereo not given), the TGI with A549 NSCLC, in the assay with SW-620 colon, in the assay on TK-10 renal, in the assay with HCT-15 colon, in the assay with ACHN renal and in the assay with SK-OV-3 ovarian was greater than 100 µM each time. For the same compound, the TGI with SK-MEL-28 melanoma is greater than 100 µM.

Turning to `Cc1cc(Cl)ccc1Nc1nc(C(F)(F)F)ccc1C(=O)N/N=C/c1ccc(N(C)C)cc1`, the GI50 in the assay with A549 NSCLC was 3.86 µM; in the assay on SW-620 colon, 2.04 µM; in the assay on TK-10 renal, 1.03 µM; in the assay on HCT-15 colon it was 0.481 µM; with ACHN renal, 2.57 µM; in the assay on SK-OV-3 ovarian, 2.19 µM. Moreover, the GI50 in the assay on SK-MEL-28 melanoma is 3.81 µM. Also, the TGI in the assay on A549 NSCLC, in the assay with SW-620 colon, in the assay with TK-10 renal, with HCT-15 colon, in the assay with ACHN renal and in the assay with SK-OV-3 ovarian was greater than 100 µM in each case. The same compound had a TGI in the assay with SK-MEL-28 melanoma greater than 100 µM.

In the case of `Clc1ccc2c(NCCN3CCN(c4ccnc(N5CCCC5)n4)CC3)ccnc2c1`, the GI50 in the assay on A549 NSCLC is 4.23 µM; in the assay with SW-620 colon, 2.05 µM; with TK-10 renal it was 3.9 µM; in the assay on HCT-15 colon, 2.1 µM; in the assay with ACHN renal it was 2.68 µM; in the assay with SK-OV-3 ovarian, 11.8 µM. Also, the GI50 in the assay with SK-MEL-28 melanoma was 1.77 µM. The TGI in the assay with A549 NSCLC came to 16.8 µM; in the assay with SW-620 colon it was 4.31 µM; with TK-10 renal, 21.3 µM; in the assay on HCT-15 colon, 7.57 µM; in the assay with ACHN renal, 8.01 µM; in the assay with SK-OV-3 ovarian, 34.2 µM. In the assay on SK-MEL-28 melanoma, this compound came in with a TGI of 3.66 µM.

With `c1cc(C2N3CCCN2CC3)ccn1` (stereo not given), the TGI in the assay on A549 NSCLC, in the assay with SW-620 colon, in the assay with TK-10 renal, in the assay on HCT-15 colon, in the assay with ACHN renal and with SK-OV-3 ovarian was greater than 100 µM in each case. In the assay on SK-MEL-28 melanoma, this compound registered a TGI greater than 100 µM.

Consider `CCCCCC/C=C\CCCCCCCCCc1c(O)c(OC)cc(O)c1CN(C)C`, for which the TGI with A549 NSCLC is 17.1 µM; in the assay on SW-620 colon, greater than 100 µM; in the assay on TK-10 renal, 28.8 µM; in the assay on HCT-15 colon it was 10.8 µM; with ACHN renal, 22.5 µM; in the assay on SK-OV-3 ovarian, 28.1 µM. Further, the TGI in the assay on SK-MEL-28 melanoma was found to be 28.2 µM.

Take `CC1(C)CC(O)CCCCCCOc2c(CN)cccc2NC(=O)c2nc(cnc2N)-c2ccc(cc2)S1(=O)=O` (stereo not given): the GI50 in the assay on SW-620 colon was 0.629 µM; with TK-10 renal it was 1.52 µM; in the assay with HOP-92 NSCLC, 2.72 µM; with HCT-15 colon, 0.263 µM; with ACHN renal, 0.0214 µM; in the assay on SK-OV-3 ovarian, 2.22 µM. In addition, the GI50 in the assay on SK-MEL-28 melanoma is 1.13 µM. Besides, the TGI amounted to 2.36 µM with SW-620 colon; 3.86 µM with TK-10 renal; 5.82 µM in the assay on HOP-92 NSCLC; 2.56 µM in the assay on HCT-15 colon; 2.04 µM in the assay on ACHN renal; 15.8 µM in the assay with SK-OV-3 ovarian. The compound also had a TGI in the assay with SK-MEL-28 melanoma of 2.48 µM.

On to `CC1CCC(C#N)(NOC2=NCCN2)CC1` (stereo not given), for which the GI50 in the assay on A549 NSCLC was 39.4 µM; in the assay with SW-620 colon it was 33.2 µM; in the assay on TK-10 renal it was 26.3 µM; with HOP-92 NSCLC it was 35.4 µM; in the assay with HCT-15 colon it was 27.8 µM; in the assay with ACHN renal, 15.2 µM. For the same compound, the GI50 in the assay on SK-MEL-28 melanoma was greater than 100 µM. Further, the TGI in the assay on A549 NSCLC was greater than 100 µM; in the assay on SW-620 colon it was greater than 100 µM; with TK-10 renal, greater than 100 µM; with HOP-92 NSCLC, 91.3 µM; in the assay with HCT-15 colon, greater than 100 µM; in the assay with ACHN renal, 30.1 µM. The compound also gave a TGI in the assay on SK-MEL-28 melanoma greater than 100 µM.

Consider `COc1cc(C(=O)/C=C/c2c(-c3cccs3)nc3ccccn23)cc(OC)c1OC`, for which the GI50 is 2.04 µM in the assay with A549 NSCLC; 3.78 µM with TK-10 renal; 0.289 µM in the assay on HOP-92 NSCLC; 1.6 µM in the assay with HCT-15 colon; 2.09 µM in the assay on ACHN renal; 3.01 µM with SK-OV-3 ovarian. For the same compound, the TGI is 5.89 µM in the assay on A549 NSCLC; 25.4 µM in the assay with TK-10 renal; 2.78 µM with HOP-92 NSCLC; 5.31 µM in the assay with HCT-15 colon; 5.09 µM in the assay with ACHN renal; 8.35 µM in the assay on SK-OV-3 ovarian.

Turning to `Nc1n[n+]([O-])c2cnccc2[n+]1[O-]`, the TGI with A549 NSCLC, in the assay with SW-620 colon, in the assay on TK-10 renal, with HCT-15 colon, with ACHN renal and in the assay with SK-OV-3 ovarian was greater than 100 µM throughout. The same compound returned a TGI in the assay with SK-MEL-28 melanoma greater than 100 µM.

Consider `C=C(C)C1CCC2(CO)C(O)CC3(C)C(CCC4C5(C)CCC(O)C(C)(C)C5CCC43C)C12` (stereo not given), for which the TGI was 32.6 µM in the assay on A549 NSCLC; greater than 100 µM in the assay on SW-620 colon; 30.2 µM with TK-10 renal; 25.2 µM in the assay on HOP-92 NSCLC; 88 µM in the assay on HCT-15 colon; 15.4 µM with ACHN renal. Besides, in the assay with SK-MEL-28 melanoma, the TGI worked out at 32.5 µM.

With `COc1ccc(-c2cc3nccn3c(Nc3ncccc3C(N)=O)n2)cc1OC`, the GI50 is 3 µM with A549 NSCLC; 2.34 µM with SW-620 colon; 0.391 µM in the assay with TK-10 renal; 0.659 µM in the assay with HCT-15 colon; 0.445 µM in the assay on ACHN renal; greater than 100 µM with SK-OV-3 ovarian. The GI50 in the assay on SK-MEL-28 melanoma was greater than 100 µM. Besides, the TGI in the assay on A549 NSCLC is greater than 100 µM; with SW-620 colon, greater than 100 µM; in the assay on TK-10 renal, greater than 29.8 µM; with HCT-15 colon, greater than 100 µM; in the assay with ACHN renal, greater than 100 µM; in the assay on SK-OV-3 ovarian, greater than 100 µM. Moreover, the TGI in the assay with SK-MEL-28 melanoma was greater than 100 µM.
